Results: publication PMC6264418, “t-Bu2SiF-Derivatized D2-Receptor Ligands: The First SiFA-Containing Small Molecule Radiotracers for Target-Specific PET-Imaging” (Molecules, 2011)
Where two headings read alike, the source gives them in different places.

Legend:
human D2 receptor [1] = target: T1, human D2 receptor (Homo sapiens, UniProt P14416); assay: [3H]spiperone binding assay, dopamine D2-receptor affinity (HEK293 cells stably expressing D2 receptors)
T1 construct: expressed in transfected cells
T1 sequence (P14416 whole entry): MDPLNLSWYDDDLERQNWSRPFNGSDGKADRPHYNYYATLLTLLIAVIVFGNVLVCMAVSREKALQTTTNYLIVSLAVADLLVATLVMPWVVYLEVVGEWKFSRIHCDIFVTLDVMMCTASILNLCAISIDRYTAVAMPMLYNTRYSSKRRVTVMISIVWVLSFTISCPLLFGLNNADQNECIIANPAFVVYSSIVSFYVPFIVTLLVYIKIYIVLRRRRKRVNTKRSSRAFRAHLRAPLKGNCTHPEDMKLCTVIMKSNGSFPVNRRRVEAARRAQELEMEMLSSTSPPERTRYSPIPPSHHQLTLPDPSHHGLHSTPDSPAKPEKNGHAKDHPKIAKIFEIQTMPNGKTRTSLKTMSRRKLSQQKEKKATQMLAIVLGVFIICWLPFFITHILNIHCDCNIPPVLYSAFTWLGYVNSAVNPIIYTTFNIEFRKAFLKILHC
Protocol: Source of the dopamine-D2-receptors was cell line HEK293 which expresses the D2 receptors stably. […] All substances were evaluated in 3 independent competition experiments in six concentrations (each in triplicate). The Ki-values were calculated from the IC50-values according to Cheng-Prusoff as described in detail in [23].

human D2 receptor [2] = target: T1, human D2 receptor; parameters: method as in PMID 12570798; details: D2-receptor antagonists, literature affinity; cited from earlier work
[3] = ratio of Ki values at the D2 receptor

SMILES | Ki (human D2 receptor [1]) [nM] | factor by which affinity is reduced compared to raclopride (human D2 receptor [1]; [3]) | D2-receptor affinity range (human D2 receptor [2]) | factor by which affinity is reduced compared to fallypride (1) (human D2 receptor [1]; [3]) | other results
C=CCN1CCC[C@H]1CNC(=O)c1cc([Si](F)(C(C)(C)C)C(C)(C)C)ccc1OC [SiFA-DMFP, 4a, (S)-N-((1-Allylpyrrolidine-2-yl)methyl)-5-(di-tert-butylfluorosilyl)-2-methoxybenzamide] | 13.6 ± 4.3 | 11 |  |  | factor by which affinity is reduced compared to desmethoxyfallypride (2) (human D2 receptor [1]; [3]): 22
CCN1CCC[C@H]1CNC(=O)c1c(O)c(Cl)cc(Cl)c1OC [Raclopride, raclopride] |  |  | nanomolar |  | 
C=CCN1CCC[C@H]1CNC(=O)c1cc(CCCF)cc(OC)c1OC [Fallypride, fallypride, reference compound] |  |  | picomolar |  | Ki (human D2 receptor [1]; D2-receptor affinity, [3H]spiperone competition, 3 independent experiments, Ki from IC50 by Cheng-Prusoff, read-out: Ki (nM ± SEM)): 0.0965 ± 0.0153 nM
C=CCN1CCCC1CNC(=O)c1cc(CCCS[C@H]2CC(=O)N(c3ccc([Si](F)(C(C)(C)C)C(C)(C)C)cc3)C2=O)cc(OC)c1OC (stereo partly drawn) [SiFA-M-FP, 5, (S)-N-((1-Allylpyrrolidin-2-yl)methyl)-5-(3-(1-(4-(di-tert-butylfluorosilyl)phenyl)-2,5-dioxopyrrolidin-3-ylthio)propyl)-2,3-dimethoxybenzamide] | 4.21 ± 0.41 | 3.5 |  | 44 | 
C=CCN1CCC[C@H]1CNC(=O)c1cc([Si](F)(C(C)(C)C)C(C)(C)C)cc(OC)c1OC [SiFA-FP, 4b, (S)-N-((1-Allylpyrrolidine-2-yl)methyl)-5-(di-tert-butylfluorosilyl)-2,3-dimethoxybenzamide] | 33 ± 7.6 |  |  | 342 | 
C=CCN1CCC[C@H]1CNC(=O)c1ccc([Si](F)(C(C)(C)C)C(C)(C)C)cc1 [SiFA-DDMFP, 4c, (S)-N-((1-Allylpyrrolidine-2-yl)methyl)-4-(di-tert-butylfluorosilyl) benzamide] | 62.7 ± 16.9 |  |  |  | 
